Laboratory results taken from patent US10988459B2 (priority 2015, dated 2021).

These compounds were tested against human RIP1 kinase domain (2-375) (Homo sapiens (Human), UniProt Q13546) (assay: biochemical). Settings: tight-binding apparent inhibition constant; human RIP1 kinase domain (2-375) 50 nM, 50 uM ATP, 2 hours; read-out: Ki.
Assay type: biochemical
Summary of the method: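 50 nM purified kinase domain from baculovirus-infected insect cells, incubated 2 h with compound in 50 mM Hepes pH 7.5, 30 mM MgCl2, 1 mM DTT, 50 uM ATP, 0.002% Brij-35, 0.5% DMSO. ADP formation read by Transcreener FP at 633 nm excitation. Ki^app fitted with the Morrison tight-binding equation.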

Sequence of human RIP1 kinase domain (2-375) (Q13546 2-375): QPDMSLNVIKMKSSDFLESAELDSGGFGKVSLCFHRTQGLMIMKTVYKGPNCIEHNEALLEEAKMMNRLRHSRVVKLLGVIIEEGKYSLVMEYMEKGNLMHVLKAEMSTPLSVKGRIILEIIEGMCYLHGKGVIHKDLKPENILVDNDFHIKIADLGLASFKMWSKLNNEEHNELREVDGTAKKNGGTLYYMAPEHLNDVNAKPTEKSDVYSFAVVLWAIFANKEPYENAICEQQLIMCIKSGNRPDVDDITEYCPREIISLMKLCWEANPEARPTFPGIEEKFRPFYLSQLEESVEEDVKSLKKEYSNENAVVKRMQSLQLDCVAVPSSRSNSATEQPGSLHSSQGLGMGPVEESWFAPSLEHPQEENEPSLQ

Going from CN1C(=O)[C@@H](NC(=O)c2nc3n(n2)C(C2CCCCC2)CCC3)COc2ccccc21 (stereo partly drawn) [Example 377, 5-cyclohexyl-N—((S)-5-methyl-4-oxo-2,3,4,5-tetrahydrobenzo[b][1,4]oxazepin-3-yl)-5,6,7,8-tetrahydro-[1,2,4]triazolo[1,5-a]pyridine-2-carboxamide] to CN1C(=O)[C@@H](NC(=O)c2nc3n(n2)C(C2CCOCC2)CCC3)COc2ccccc21 (stereo partly drawn) [Example 408, N—((S)-5-methyl-4-oxo-2,3,4,5-tetrahydrobenzo[b][1,4]oxazepin-3-yl)-5-(tetrahydro-2H-pyran-4-yl)-5,6,7,8-tetrahydro-[1,2,4]triazolo[1,5-a]pyridine-2-carboxamide], the Ki rises from 10.8 nM to 147 nM (14-fold).

CCc1cccc2nc(C(=O)N[C@H]3COc4ccccc4N(C)C3=O)nn12 [Example 378, (S)-5-ethyl-N-(5-methyl-4-oxo-2,3,4,5-tetrahydrobenzo[b][1,4]oxazepin-3-yl)-[1,2,4]triazolo[1,5-a]pyridine-2-carboxamide] and CC(C)c1cccc2nc(C(=O)N[C@H]3COc4ccccc4N(C)C3=O)nn12 [Example 406, (S)-5-isopropyl-N-(5-methyl-4-oxo-2,3,4,5-tetrahydrobenzo[b][1,4]oxazepin-3-yl)-[1,2,4]triazolo[1,5-a]pyridine-2-carboxamide] are within 1.5-fold of each other in Ki: 6.68 nM for the first, 4.72 nM for the second.

Going from CCC1CCCc2nc(C(=O)N[C@H]3CCn4nccc4N(C)C3=O)nn21 (stereo partly drawn) [Example 379, 5-ethyl-N—((S)-4-methyl-5-oxo-5,6,7,8-tetrahydro-4H-pyrazolo[1,5-a][1,3]diazepin-6-yl)-5,6,7,8-tetrahydro-[1,2,4]triazolo[1,5-a]pyridine-2-carboxamide] to CN1C(=O)[C@@H](NC(=O)c2nc3n(n2)C(c2cnn(C)c2)CCC3)CCn2nccc21 (stereo partly drawn) [Example 397, 5-(1-methyl-1H-pyrazol-4-yl)-N—((S)-4-methyl-5-oxo-5,6,7,8-tetrahydro-4H-pyrazolo[1,5-a][1,3]diazepin-6-yl)-5,6,7,8-tetrahydro-[1,2,4]triazolo[1,5-a]pyridine-2-carboxamide], the Ki rises from 374 nM to 709 nM (1.9-fold). The first binds more tightly here.

Going from CN1C(=O)[C@@H](NC(=O)c2nc3n(n2)C(c2ccccc2)CCC3)CCn2nccc21 (stereo partly drawn) [Example 380, N—((S)-4-methyl-5-oxo-5,6,7,8-tetrahydro-4H-pyrazolo[1,5-a][1,3]diazepin-6-yl)-5-phenyl-5,6,7,8-tetrahydro-[1,2,4]triazolo[1,5-a]pyridine-2-carboxamide] to CN1C(=O)[C@@H](NC(=O)c2nc3n(n2)C(c2ccccc2F)CCC3)CCn2nccc21 (stereo partly drawn) [Example 387, 5-(2-fluorophenyl)-N—((S)-4-methyl-5-oxo-5,6,7,8-tetrahydro-4H-pyrazolo[1,5-a][1,3]diazepin-6-yl)-5,6,7,8-tetrahydro-[1,2,4]triazolo[1,5-a]pyridine-2-carboxamide], the Ki falls from 154 nM to 100 nM (1.5-fold).

Compared with CN1C(=O)[C@@H](NC(=O)c2nc3n(n2)C(C2CCCCC2)CCC3)CCn2nccc21 (stereo partly drawn) [Example 381, 5-cyclohexyl-N—((S)-4-methyl-5-oxo-5,6,7,8-tetrahydro-4H-pyrazolo[1,5-a][1,3]diazepin-6-yl)-5,6,7,8-tetrahydro-[1,2,4]triazolo[1,5-a]pyridine-2-carboxamide], CN1C(=O)[C@@H](NC(=O)c2nc3n(n2)C(C2CCOC2)CCC3)CCn2nccc21 (stereo partly drawn) [Example 390, N—((S)-4-methyl-5-oxo-5,6,7,8-tetrahydro-4H-pyrazolo[1,5-a][1,3]diazepin-6-yl)-5-(tetra hydrofuran-3-yl)-5,6,7,8-tetrahydro-[1,2,4]triazolo[1,5-a]pyridine-2-carboxamide] is 11-fold higher in Ki: 282 nM for the first, 3000 nM for the second.

CN1C(=O)[C@@H](NC(=O)c2nc3cccc(-c4cc(F)ccc4F)n3n2)CCn2nccc21 [Example 382, (S)-5-(2,5-difluorophenyl)-N-(4-methyl-5-oxo-5,6,7,8-tetrahydro-4H-pyrazolo[1,5-a][1,3]diazepin-6-yl)-[1,2,4]triazolo[1,5-a]pyridine-2-carboxamide] and CN1C(=O)[C@@H](NC(=O)c2nc3cccc(-c4ccccc4F)n3n2)CCn2nccc21 [Example 386, (S)-5-(2-fluorophenyl)-N-(4-methyl-5-oxo-5,6,7,8-tetrahydro-4H-pyrazolo[1,5-a][1,3]diazepin-6-yl)-[1,2,4]triazolo[1,5-a]pyridine-2-carboxamide] are within 1.5-fold of each other in Ki: 13.1 nM for the first, 14.8 nM for the second.

CCC1CCCc2nc(C(=O)N[C@H]3COc4ccccc4N(C)C3=O)nn21 (stereo partly drawn) [Example 383, 5-ethyl-N—((S)-5-methyl-4-oxo-2,3,4,5-tetrahydrobenzo[b][1,4]oxazepin-3-yl)-5,6,7,8-tetrahydro-[1,2,4]triazolo[1,5-a]pyridine-2-carboxamide] and CN1C(=O)[C@@H](NC(=O)c2nc3cccc(C4CCOCC4)n3n2)COc2ccccc21 [Example 405, (S)—N-(5-methyl-4-oxo-2,3,4,5-tetrahydrobenzo[b][1,4]oxazepin-3-yl)-5-(tetrahydro-2H-pyran-4-yl)-[1,2,4]triazolo[1,5-a]pyridine-2-carboxamide] are within 1.5-fold of each other in Ki: 29.5 nM for the first, 35.6 nM for the second.

CN1C(=O)[C@@H](NC(=O)c2nc3n(n2)C(c2cc(F)ccc2F)CCC3)CCn2nccc21 (stereo partly drawn) [Example 388, 5-(2,5-difluorophenyl)-N—((S)-4-methyl-5-oxo-5,6,7,8-tetrahydro-4H-pyrazolo[1,5-a][1,3]diazepin-6-yl)-5,6,7,8-tetrahydro-[1,2,4]triazolo[1,5-a]pyridine-2-carboxamide] and CN1C(=O)[C@@H](NC(=O)c2nc3n(n2)C(c2c(F)cccc2F)CCC3)CCn2nccc21 (stereo partly drawn) [Example 396, 5-(2,6-difluorophenyl)-N—((S)-4-methyl-5-oxo-5,6,7,8-tetrahydro-4H-pyrazolo[1,5-a][1,3]diazepin-6-yl)-5,6,7,8-tetrahydro-[1,2,4]triazolo[1,5-a]pyridine-2-carboxamide] are within 1.5-fold of each other in Ki: 124 nM for the first, 152 nM for the second.

First: CN1C(=O)[C@@H](NC(=O)c2nc3cccc(-c4ccoc4)n3n2)CCn2nccc21 [Example 389, (S)-5-(furan-3-yl)-N-(4-methyl-5-oxo-5,6,7,8-tetrahydro-4H-pyrazolo[1,5-a][1,3]diazepin-6-yl)-[1,2,4]triazolo[1,5-a]pyridine-2-carboxamide]
Second: CN1C(=O)[C@@H](NC(=O)c2nc3cccc(-c4cnn(C)c4)n3n2)CCn2nccc21 [Example 393, (S)-5-(1-methyl-1H-pyrazol-4-yl)-N-(4-methyl-5-oxo-5,6,7,8-tetrahydro-4H-pyrazol-[1,5-a][1,3]diazepin-6-yl)-[1,2,4]triazolo[1,5-a]pyridine-2-carboxamide]
The Ki of the first is 2.7-fold lower: 173 nM for the first, 463 nM for the second. The first binds more tightly here.

CN1C(=O)[C@@H](NC(=O)c2nc3cccc(-c4ccccc4)c3s2)COc2ccccc21 [Example 391, (S)—N-(5-methyl-4-oxo-2,3,4,5-tetrahydrobenzo[b][1,4]oxazepin-3-yl)-7-phenylbenzo[d]thiazole-2-carboxamide] and CN1C(=O)[C@@H](NC(=O)c2nc3cccc(-c4ccccc4)c3s2)CCn2nccc21 [Example 392, (S)—N-(4-methyl-5-oxo-5,6,7,8-tetrahydro-4H-pyrazolo[1,5-a][1,3]diazepin-6-yl)-7-phenylbenzo[d]thiazole-2-carboxamide] are within 1.5-fold of each other in Ki: 65.8 nM for the first, 96.3 nM for the second.

First: CN1C(=O)[C@@H](NC(=O)c2nc3cccc(-c4c(F)cccc4F)n3n2)CCn2nccc21 [Example 394, (S)-5-(2,6-difluorophenyl)-N-(4-methyl-5-oxo-5,6,7,8-tetrahydro-4H-pyrazolo[1,5-a][1,3]diazepin-6-yl)-[1,2,4]triazolo[1,5-a]pyridine-2-carboxamide]
Second: CN1C(=O)[C@@H](NC(=O)c2nc3cccc(C4=CCOCC4)n3n2)CCn2nccc21 [Example 395, (S)-5-(3,6-dihydro-2H-pyran-4-yl)-N-(4-methyl-5-oxo-5,6,7,8-tetrahydro-4H-pyrazolo[1,5-a][1,3]diazepin-6-yl)-[1,2,4]triazolo[1,5-a]pyridine-2-carboxamide]
The Ki of the first is 17-fold lower: 6.04 nM for the first, 104 nM for the second.

First: CN1C(=O)[C@@H](NC(=O)c2nc3cccc(-c4cnn(C)c4)n3n2)COc2ccccc21 [Example 398, (S)-5-(1-methyl-1H-pyrazol-4-yl)-N-(5-methyl-4-oxo-2,3,4,5-tetrahydrobenzo[b][1,4]oxazepin-3-yl)-[1,2,4]triazolo[1,5-a]pyridine-2-carboxamide]
Second: CN1C(=O)[C@@H](NC(=O)c2nc3cccc(-c4ccoc4)n3n2)COc2ccccc21 [Example 399, (S)-5-(furan-3-yl)-N-(5-methyl-4-oxo-2,3,4,5-tetrahydrobenzo[b][1,4]oxazepin-3-yl)-[1,2, 4]triazolo[1,5-a]pyridine-2-carboxamide]
The Ki of the first is 8-fold higher: 36 nM for the first, 4.5 nM for the second. The second binds more tightly here.

Going from O=C(N[C@H]1COc2cc(F)cc(F)c2NC1=O)c1nc2cccc(C(F)(F)F)n2n1 [Example 417, (S)—N-(6,8-difluoro-4-oxo-2,3,4,5-tetrahydrobenzo[b][1,4]oxazepin-3-yl)-5-(trifluoromethyl)-[1,2,4]triazolo[1,5-a]pyridine-2-carboxamide] to Cc1cc(F)c2c(c1)OC[C@H](NC(=O)c1nc3cccc(C(F)(F)F)n3n1)C(=O)N2 [Example 419, (S)—N-(6-fluoro-8-methyl-4-oxo-2,3,4,5-tetrahydrobenzo[b][1,4]oxazepin-3-yl)-5-(trifluoromethyl)-[1,2,4]triazolo[1,5-a]pyridine-2-carboxamide], the Ki falls from 36.5 nM to 9.4 nM (3.9-fold).

Going from O=C(N[C@H]1CCc2cc(F)cc(F)c2NC1=O)c1nc2cccc(C(F)(F)F)n2n1 [Example 418, (S)—N-(7,9-difluoro-2-oxo-2,3,4,5-tetrahydro-1H-benzo[b]azepin-3-yl)-5-(trifluoromethyl)-[1,2,4]triazolo[1,5-a]pyridine-2-carboxamide] to CC(C)c1cccc2nc(C(=O)N[C@H]3CCc4cc(F)cc(F)c4NC3=O)nn12 [Example 420, (S)—N-(7,9-difluoro-2-oxo-2,3,4,5-tetrahydro-1H-benzo[b]azepin-3-yl)-5-isopropyl-[1,2,4]triazolo[1,5-a]pyridine-2-carboxamide], the Ki falls from 34.3 nM to 4.71 nM (7.3-fold). The second binds more tightly here.
